The structures appear in SMILES notation.

`CC(=O)Nc1ccc(COc2cccc(C(N)=O)c2)cc1` registered a melting point of 198 to 199 °C. For `CC(=O)c1ccc(C(=O)Nc2ccc(C(C)(C)C)cc2)cc1`, the melting point is 183 to 184 °C. To `O=CN1C(=O)NC(=O)C12C(=O)N(Cc1ccc(Cl)c(Cl)c1)c1ccccc12` (stereo unspecified) belongs 244 to 246 °C; to `COc1ccc(CCN(C)C(=O)/C=C/c2cccnc2)cc1OC`, 84 to 86 °C; to `CC(C)=CC(=O)N[C@H]1CC[C@H](CCN2CCN(c3nccc4c3OCC4)CC2)CC1`, 184 °C. The molecule `COC(=O)c1cc(F)c(-n2c(=O)[nH]n(C)c2=O)cc1F` came in with a melting point of 156 °C.

Regarding `O=C(O)Cc1c(C(=O)C2CCCCC2)[nH]c2cc(Cl)ccc12`, the melting point is 206 to 209 °C. On to `O=[N+]([O-])c1c(NCC23CCCN2CCC3)cnc2ccccc12`, for which the melting point was in the range of 95 to 99 °C. To `COc1cc(OC)c(N2CCCC2)cc1/C=C/C(=O)c1ccc(S(=O)(=O)NCc2ccccn2)cc1` belongs 112 to 116 °C. In the case of `Cc1cc(-c2ccc(C#N)cc2)sc1C(=O)O`, the melting point is 248 to 253 °C.

Consider `CC(C)(C)OC(=O)C[C@@H]1C[C@@H](COc2ccc(-c3ccc(C#N)c(F)c3)cc2)NC1=O`, for which the melting point lay in the range of 142 to 144 °C. Turning to `Cc1cc(OC(F)F)ccc1NC(=O)c1cccc(N)c1C(=O)NC(C)C`, the melting point lay within 148 to 149 °C. `CCOc1ccc2c(c1)n(C1CCCCC1)c(=O)n2S(=O)(=O)c1ccc(NC(=O)Oc2ccccc2)cc1OC` came in with a melting point of 197 °C. `OCCCN1Cc2cccc3c2N(CC3)c2ccccc21`: the melting point lay within 194 to 196 °C.

In the case of `CNC(=O)c1cccc(NC(=O)Cc2cccc(OCc3ccccc3)c2)c1`, the melting point is 150 °C.

In turn, `COc1ccc(N(C(=O)Nc2cc(C)c(S(=O)(=O)C[N+](=O)[O-])c(C)c2)c2ccc(OC)cc2)cc1` came in with a melting point of 150 to 151 °C. `CC1(C)CON(Cc2ccc(NC(=O)C3=C(C(=O)O)CCCC3)cc2Br)C1=O`: the melting point was in the range of 149 to 151 °C.

The molecule `NCc1nc(-c2ncn3c2[C@@H]2CCN2C(=O)c2sccc2-3)no1` registered a melting point of 235 to 238 °C.

`COc1ccccc1C1(O)C(O)CC(c2ccccc2)(c2ccccc2)C2CN(C(=O)Cc3c[nH]c4ccc(O)cc34)CC21` (mixture of isomers) returned a melting point of 230 to 235 °C. To `CCC(C)(C)OC(=O)NC(C)(Cc1c[nH]c2ccccc12)C(=O)NCCc1ccncc1` (stereo unspecified) belongs 138 to 141 °C. In turn, `Cc1c(CCC2C(=O)OCCC2OC2CCCCO2)c2c(c(C)c1OCc1ccccc1)CCC(C)(C)O2` (stereo unspecified) had a melting point of 95 to 95.5 °C. Molecule `CC(C)CC(=O)Nc1cccc(-c2ccnc3c(-c4ccc(Cl)c(Cl)c4)cnn23)c1` gave a melting point of 215 to 217 °C. `CCCCCCCOc1ccc(COc2ccc3c(c2)CC(CC(=O)O)C3OC)cc1` (stereo unspecified) yielded a melting point of 80 to 82 °C. Regarding `CCCCc1oc2ccccc2c1-c1ncc(-c2ccc3cc(OCc4nnn[nH]4)ccc3c2)o1`, the melting point lay within 238 to 240 °C. `NC(=C[N+](=O)[O-])N1CCCC1`: the melting point is 120 to 125 °C. Turning to `CN(C)CCNc1nc(C2C(=O)Nc3ccc(Br)cc32)c2cn(C)nc2n1` (stereo unspecified), the melting point was 279 to 289 °C. Take `CCOC(=O)CC1CCc2c(oc3ccc(Cl)cc23)C1` (stereo unspecified): the melting point lay within 54 to 55.5 °C. Molecule `Cc1oc(-c2ccccc2)nc1/C=C/c1ccc(C=O)cc1` registered a melting point of 158 to 159 °C. The molecule `Fc1cc2c(cc1F)CC(n1cc[nH]c1=S)C2` gave a melting point of 255 to 257 °C.

For `CC(C)Cn1c(CNC(=O)OC(C)(C)C)c(-c2ccc(Cl)cc2)c2cc(/C=C/C(N)=O)ccc2c1=O`, the melting point was in the range of 152 to 154 °C. Turning to `O=C(O)c1ccc(OCc2ccccc2)cc1O`, the melting point fell in the range of 179 to 180 °C. `CCOC(=O)c1c(S(=O)(=O)Cc2nccn2C)nc2cc(OC)c(OC)cc2c1-c1ccc(OC)c(OC)c1` came in with a melting point of 132 to 133 °C. For the molecule `C#CCOc1ccc2c(C)cc(=O)oc2c1C(=O)C=Cc1ccccc1`, the melting point lay within 140 to 142 °C.

As to `O=C(Nc1ccccc1Nc1ccnc2c(NC(=O)c3c(Cl)cccc3Cl)cccc12)c1cccnc1`, the melting point is 151 to 154 °C.

The molecule `COC(=O)c1nc(Br)cc(N)c1Cl` displayed a melting point of 194 to 195 °C. To `CN(CCc1c[nH]c2ccc(CN)cc12)Cc1ccccc1` belongs 84 to 85 °C; to `C1CCc2c(c3c(N4CCCC4)nc(N4CCCC4)nc3n2CCN2CCOCC2)C1`, 132 to 133 °C. `COc1ccc(CCC(=O)Nc2nc3c(s2)CCN(CC=Cc2cccnc2)CC3)cc1` returned a melting point of 168 to 170 °C. The molecule `CCOC(=O)c1c(C(C)C)nc2c(c1-c1ccc(F)cc1)CCCC2(C)C` registered a melting point of 124 to 126 °C. As for `CCOC(=O)c1ccc(O)c(C#N)c1`, the melting point lay within 192 to 193 °C.

In turn, `CCCCn1c(=O)c2nn(S(=O)(=O)c3cccc4cccnc34)cc2n(CCCC)c1=O` registered a melting point of 203 to 205 °C.

The molecule `O=S(=O)(CC(O)(CO)c1ccccc1)c1ccccc1` (stereo unspecified) came in with a melting point of 137 °C. To `CON(C)S(=O)(=O)c1ccccc1[N+](=O)[O-]` belongs 105 to 106 °C; to `Cc1ccc(S(=O)(=O)Nc2ccc(C(N)=O)cc2C(N)=O)cc1`, 212 to 215 °C; to `Cc1ccc(S(=O)(=O)N2CCC[C@H]2C(=O)N2c3ccc(Cl)c(Cl)c3C[C@@H]2C)cc1`, 170 to 173 °C. Regarding `CC(C)(C)OC(=O)C1CCN(C(=O)C2CN(c3ccc(C(=N)N)cc3)C(=O)O2)CC1` (stereo unspecified), the melting point stood at 160 °C. To `CN(C)C1CCN(c2cc3ccc(Br)cc3c(=O)[nH]2)CC1` belongs 227 to 228 °C; to `S=C=Nc1ccc(Cl)c(Cl)c1`, 111 to 113 °C; to `CC(Oc1ccc(-c2ccc(Cl)cc2)cc1)(C(=O)O)C(F)(F)F` (stereo unspecified), 198 to 199 °C.

Molecule `COC(=O)OCC(CO)CCn1cnc2cnc(N)nc21` (stereo unspecified) returned a melting point of 129 to 132 °C.

On to `CC(C)(C)OC(=O)NCCCn1c(-c2ccc([N+](=O)[O-])cc2)csc1=Nc1ccccc1`, for which the melting point is 254 to 257 °C.

As for `CCn1ncc2c(NCC3CCCCC3)c3cc(OC)ccc3nc21`, the melting point is 235 to 237 °C. Turning to `O=C(O)CN(Cc1cccc(Cn2cc(C3c4ccccc4C=Cc4ccccc43)c(=S)[nH]c2=O)c1)C(=O)OCc1ccccc1`, the melting point is 120 °C. For `CNC(=N[N+](=O)[O-])N(Cc1cnc(Cl)s1)C(C)=O`, the melting point lay in the range of 105 to 106 °C. To `Cc1cc(S)n2nc(C(=O)O)nc2n1` belongs 215 to 217 °C; to `OC(=S)Cc1cccc2ccccc12`, 106 °C; to `Cc1cc(C)c2c(c1)-c1cc(Br)c(C)cc1P(=O)(O)O2`, 260 °C. `CC(C)(CCCCCCCCCCCC(C)(C)C(=O)O)C(=O)O`: the melting point lay within 95 to 96 °C. The molecule `COC1=CC(=O)C2=C(CC=CC2)C1=O` displayed a melting point of 172 °C.

Regarding `CC(C)Cn1c(SCc2ccccn2)nc2ccccc2c1=O`, the melting point lay within 91.7 to 93.2 °C. The molecule `CCN1CCN(Cc2ccc(-c3cc4c(NCc5ccc(OC)nc5)ncnc4[nH]3)cc2)CC1` displayed a melting point of 305 °C. Turning to `O=c1[nH]ncc(N2CCN(C34CC5CC(CC(C5)C3)C4)CC2)c1Cl`, the melting point lay in the range of 292 to 294 °C. To `Cc1ccc(S(=O)(=O)C(C)(C)C(=O)c2ccccc2)cc1` belongs 64 to 64.5 °C; to `O=C1Cc2cc(NC(=O)C(=O)N3CCC(Oc4ccccc4)CC3)ccc2N1`, 78 to 81 °C. To `COc1ccc(C2=NN(C3CCN(C(=O)CS(C)(=O)=O)CC3)C(=O)[C@@H]3CC=CC[C@H]23)cc1OC` belongs 169 to 170 °C; to `c1ccc(C(NC2C3CC4CC(C3)CC2(OCc2ccc(-c3nc5ccccc5o3)cc2)C4)(c2ccccc2)c2ccccc2)cc1` (stereo unspecified), 208 to 210 °C. Molecule `O=C(NCCCCn1cncn1)c1sc2ccccc2c1Cl` showed a melting point of 103 to 105 °C.

`O=C(c1ccc(F)cc1)C1CCN(CCN2C(=O)Nc3ccc(Cl)cc3C2c2ccccc2)CC1` (stereo unspecified) returned a melting point of 196 °C.

Regarding `Cc1ccc(Nc2nnc(-c3ccc(N4CCOCC4)c([N+](=O)[O-])c3)s2)cc1Cl`, the melting point was 268 to 269 °C.

For `CC(=O)N1CCC(c2nn(-c3ccc(F)cc3)c3ccccc23)CC1`, the melting point was in the range of 99 to 101 °C. To `O=C(Nc1cc([N+](=O)[O-])c[nH]c1=O)c1ccccc1` belongs 267 to 268 °C; to `COc1ccc2cc(-c3cc4ccccc4o3)ccc2c1`, 194 to 195 °C. Molecule `COc1cccc2c3c([nH]c12)C(=O)N=NC3=O` registered a melting point greater than 260 °C. Take `Nc1cc(O)c(C(=O)NCC2CN(Cc3ccccc3)CCO2)cc1Cl` (stereo unspecified): the melting point lay in the range of 153 to 155 °C. For the molecule `C=CCc1cc2c(c(CC=C)c1O)NC(=O)CO2`, the melting point fell in the range of 114 to 115 °C. The molecule `CSc1cc2cnc(-c3ccccc3)n2c(SC)n1` registered a melting point of 117 to 118 °C. With `COC(=O)C[C@H](O)CC(=O)C=Cc1c(-c2ccc(F)cc2)c(-c2ccccc2)c(C(=O)NCc2ccc(F)cc2)n1C(C)C`, the melting point is 62 to 63 °C.

In the case of `O=[N+]([O-])c1ccc2c(c1)OC(c1ccccc1)O2` (stereo unspecified), the melting point is 84 to 85 °C. Consider `Cn1nnc(-c2ccc3[nH]cc(C4=CCN(CCN5CCNC5=O)CC4)c3c2)n1`, for which the melting point lay within 249 to 252 °C. To `COc1cc(COc2nn(-c3ccccc3)cc2/C=C/c2cnco2)ccc1OCc1nc(-c2ccco2)oc1C` belongs 137 to 138 °C; to `COC(=O)C[C@]1(C)C[C@@H](COc2ccc(-c3ccc(C#N)cc3)cc2)NC1=O`, 105 to 108 °C. On to `COc1ccc(C2CC(c3ccccc3)=NN2c2ccc(C(=O)O)cc2)cc1` (stereo unspecified), for which the melting point was determined as 226 °C. For `CCCCc1nc(Cl)c(C=O)n1Cc1ccc(-c2ccccc2C#N)cc1`, the melting point fell in the range of 96 to 97 °C. Molecule `CCC(NC(=O)OC)c1ccc(Cl)c2nc3n(c12)CCCN3c1c(Cl)cc(Cl)cc1Cl` (stereo unspecified) displayed a melting point of 231 to 233 °C.

With `Cc1ccc(C(=O)C=CN(C)C)o1`, the melting point fell in the range of 123 to 125 °C. Regarding `COc1ccc(CN2C(=O)C(C)(c3cc(NS(C)(=O)=O)ccc3Cl)c3cc(Cl)ccc32)c(OC)c1` (stereo unspecified), the melting point turned out to be 210 °C.

The values are drawn from a melting point compilation (Tetko et al.; mined from patent text by program, amines drawn as free bases though some values may be those of a salt).
